According to paper PMC10301922, “Anti-Oxidant, Anti-Mutagenic Activity and Safety Evaluation of Antrocin” (Toxics, 2023):

Assays:
Sprague Dawley rats = experiment: 28-day oral toxicity test: hematology
[1] = 28-day oral toxicity test: body weight; assay type: in vivo
[2] = female rats, 37.5 mg/kg oral 28 d
[3] = male rats, 37.5 mg/kg oral 28 d

With `C=C1CC[C@H]2C(C)(C)CCC[C@@]23C(=O)OC[C@@H]13` [Antrocin, (-)-Antrocin] the BASO (Sprague Dawley rats; [2]) was 0.2 ± 0.2%, the EOSIN (Sprague Dawley rats; [2]) was 1.2 ± 0.3% and the HCT (Sprague Dawley rats; [2]) was 48.4 ± 2.0%. For the same compound, the HGB (Sprague Dawley rats; [2]) was 15.8 ± 0.5 g/dL, the LYMPH (Sprague Dawley rats; [2]) was 84.5 ± 4.1% and the MCH (Sprague Dawley rats; [2]) was 19.8 ± 0.5 pg. For the same compound, the MCHC (Sprague Dawley rats; [2]) was 32.7 ± 0.4 g/dL, the MCV (Sprague Dawley rats; [2]) was 60.6 ± 1.0 fL and the MONO (Sprague Dawley rats; [2]) was 3.2 ± 2.0%. The NEUT (Sprague Dawley rats; [2]) was 10.9 ± 3.4%, the PLT (Sprague Dawley rats; [2]) was 1065.6 ± 199.8 10^3/µL and the RBC (Sprague Dawley rats; [2]) was 8.0 ± 0.4 10^6/µL. For the same compound, the WBC (Sprague Dawley rats; [2]) was 7.8 ± 4.5 10^3/µL, the BASO (Sprague Dawley rats; male rats, 7.5 mg/kg oral 28 d) was 0.0 ± 0.1% and the EOSIN (Sprague Dawley rats; male rats, 7.5 mg/kg oral 28 d) was 1.2 ± 0.3%. It also gave an HCT (Sprague Dawley rats; male rats, 7.5 mg/kg oral 28 d) of 45.8 ± 1.2%, an HGB (Sprague Dawley rats; male rats, 7.5 mg/kg oral 28 d) of 15.1 ± 0.4 g/dL and an LYMPH (Sprague Dawley rats; male rats, 7.5 mg/kg oral 28 d) of 77.2 ± 1.7 %. The MCH (Sprague Dawley rats; male rats, 7.5 mg/kg oral 28 d) was 19.7 ± 0.5 pg, the MCHC (Sprague Dawley rats; male rats, 7.5 mg/kg oral 28 d) was 32.9 ± 0.3 g/dL and the MCV (Sprague Dawley rats; male rats, 7.5 mg/kg oral 28 d) was 59.8 ± 1.5 fL. For the same compound, the MONO (Sprague Dawley rats; male rats, 7.5 mg/kg oral 28 d) was 2.7 ± 2.4%, the NEUT (Sprague Dawley rats; male rats, 7.5 mg/kg oral 28 d) was 18.9 ± 3.1% and the PLT (Sprague Dawley rats; male rats, 7.5 mg/kg oral 28 d) was 1235.2 ± 20.9 * 10^3/µL. For the same compound, the RBC (Sprague Dawley rats; male rats, 7.5 mg/kg oral 28 d) was 7.7 ± 0.1 10^6/µL, the WBC (Sprague Dawley rats; male rats, 7.5 mg/kg oral 28 d) was 5.3 ± 2.0 10^3/µL and the BASO (Sprague Dawley rats; [3]) was 0.1 ± 0.1%. It also gave an EOSIN (Sprague Dawley rats; [3]) of 0.6 ± 0.4%, an HCT (Sprague Dawley rats; [3]) of 48.3 ± 3.2% and an HGB (Sprague Dawley rats; [3]) of 15.7 ± 0.9 g/dL. For the same compound, the LYMPH (Sprague Dawley rats; [3]) was 83.9 ± 3.9 %, the MCH (Sprague Dawley rats; [3]) was 19.4 ± 0.6 pg and the MCHC (Sprague Dawley rats; [3]) was 32.4 ± 0.6 g/dL. For the same compound, the MCV (Sprague Dawley rats; [3]) was 59.8 ± 1.3 fL, the MONO (Sprague Dawley rats; [3]) was 1.8 ± 1.1% and the NEUT (Sprague Dawley rats; [3]) was 13.6 ± 3.7 %. For the same compound, the PLT (Sprague Dawley rats; [3]) was 1372.2 ± 161.8 * 10^3/µL, the RBC (Sprague Dawley rats; [3]) was 8.1 ± 0.6 10^6/µL and the WBC (Sprague Dawley rats; [3]) was 6.4 ± 1.1 10^3/µL. For the same compound, the “Body Weight” value ([1]; female rats, 7.5 mg/kg oral, 0-Day) was 163.3 ± 6.3 g, the “Body Weight” value ([1]; female rats, 7.5 mg/kg oral, 7-Day) was 190.0 ± 9.0 g and the “Body Weight Gain” value ([1]; female rats, 7.5 mg/kg oral, 7-Day (7th − 0th)) was 26.7 ± 5.6 g. The “Body Weight” value ([1]; female rats, 7.5 mg/kg oral, 14-Day) was 212.9 ± 12.1 g, the “Body Weight Gain” value ([1]; female rats, 7.5 mg/kg oral, 14-Day (14th − 7th)) was 22.8 ± 6.0 g and the “Body Weight” value ([1]; female rats, 7.5 mg/kg oral, 21-Day) was 229.3 ± 14.6 g. For the same compound, the “Body Weight Gain” value ([1]; female rats, 7.5 mg/kg oral, 21-Day (21st − 14th)) was 16.4 ± 5.2 g, the “Body Weight” value ([1]; female rats, 7.5 mg/kg oral, 28-Day) was 246.6 ± 21.7 g and the “Body Weight Gain” value ([1]; female rats, 7.5 mg/kg oral, 28-Day (28th − 21st)) was 17.3 ± 7.9 g. The “Body Weight” value ([1]; female rats, 37.5 mg/kg oral, 0-Day) was 162.4 ± 6.3 g, the “Body Weight” value ([1]; female rats, 37.5 mg/kg oral, 7-Day) was 188.5 ± 7.9 g and the “Body Weight Gain” value ([1]; female rats, 37.5 mg/kg oral, 7-Day (7th − 0th)) was 26.1 ± 4.1 g. For the same compound, the “Body Weight” value ([1]; female rats, 37.5 mg/kg oral, 14-Day) was 212.0 ± 7.0 g, the “Body Weight Gain” value ([1]; female rats, 37.5 mg/kg oral, 14-Day (14th − 7th)) was 23.4 ± 3.6 g and the “Body Weight” value ([1]; female rats, 37.5 mg/kg oral, 21-Day) was 230.1 ± 9.7 g. For the same compound, the “Body Weight Gain” value ([1]; female rats, 37.5 mg/kg oral, 21-Day (21st − 14th)) was 18.1 ± 5.0 g, the “Body Weight” value ([1]; female rats, 37.5 mg/kg oral, 28-Day) was 241.7 ± 13.6 g and the “Body Weight Gain” value ([1]; female rats, 37.5 mg/kg oral, 28-Day (28th − 21st)) was 11.6 ± 6.3 g. For the same compound, the “Body Weight” value ([1]; male rats, 7.5 mg/kg oral, 0-Day) was 181.4 ± 5.1 g, the “Body Weight” value ([1]; male rats, 7.5 mg/kg oral, 7-Day) was 237.9 ± 13.6 g and the “Body Weight Gain” value ([1]; male rats, 7.5 mg/kg oral, 7-Day (7th − 0th)) was 56.5 ± 10.1 g. The “Body Weight” value ([1]; male rats, 7.5 mg/kg oral, 14-Day) was 295.0 ± 22.5 g, the “Body Weight Gain” value ([1]; male rats, 7.5 mg/kg oral, 14-Day (14th − 7th)) was 57.1 ± 8.9 g and the “Body Weight” value ([1]; male rats, 7.5 mg/kg oral, 21-Day) was 349.5 ± 34.3 g. For the same compound, the “Body Weight Gain” value ([1]; male rats, 7.5 mg/kg oral, 21-Day (21st − 14th)) was 54.5 ± 12.4 g, the “Body Weight” value ([1]; male rats, 7.5 mg/kg oral, 28-Day) was 389.6 ± 46.6 g and the “Body Weight Gain” value ([1]; male rats, 7.5 mg/kg oral, 28-Day (28th − 21st)) was 40.1 ± 12.5 g. For the same compound, the “Body Weight” value ([1]; male rats, 37.5 mg/kg oral, 0-Day) was 183.9 ± 9.0 g, the “Body Weight” value ([1]; male rats, 37.5 mg/kg oral, 7-Day) was 235.6 ± 9.6 g and the “Body Weight Gain” value ([1]; male rats, 37.5 mg/kg oral, 7-Day (7th − 0th)) was 51.8 ± 4.7 g. The “Body Weight” value ([1]; male rats, 37.5 mg/kg oral, 14-Day) was 289.0 ± 17.3 g, the “Body Weight Gain” value ([1]; male rats, 37.5 mg/kg oral, 14-Day (14th − 7th)) was 53.4 ± 13.9 g and the “Body Weight” value ([1]; male rats, 37.5 mg/kg oral, 21-Day) was 332.3 ± 21.0 g. For the same compound, the “Body Weight Gain” value ([1]; male rats, 37.5 mg/kg oral, 21-Day (21st − 14th)) was 43.2 ± 7.7 g, the “Body Weight” value ([1]; male rats, 37.5 mg/kg oral, 28-Day) was 367.6 ± 30.6 g and the “Body Weight Gain” value ([1]; male rats, 37.5 mg/kg oral, 28-Day (28th − 21st)) was 35.3 ± 12.9 g.
